Values of other authors, collected in article PMC8240349 (Journal of Traditional and Complementary Medicine, 2021).

Tested on: CCA
Details: cited from earlier work

CC1=CCC[C@H](C)[C@@]12CC[C@@H](C(C)(C)O)C2 [hinesol]
activity (anti-CCA): weak activity
